According to article PMC5025651, “Reprofiled anthelmintics abate hypervirulent stationary-phase Clostridium difficile” (Scientific Reports, 2016):
Converted amounts (≈) assume the structure as drawn.

Experiments:
[1] = system: C. difficile strain 630 (CD630, ATCC BAA-1382-FZ, ribotype 012); experiment: MIC by broth microdilution; type: cell-based, Clostridium difficile; conditions: for MIC: Clostridioides difficile, ATCCBAA1382, BHIS broth, anaerobic, 20–24 h, n = 2; for in vitro activity against CD630 (in words): growth inhibition, MIC assay
[2] = system: C. difficile strain 4118 (CD4118, ATCC BAA-1870, ribotype 027); experiment: MIC by broth microdilution; type: cell-based, Clostridium difficile; conditions: for MIC: Clostridioides difficile, ATCCBAA1870, BHIS broth, anaerobic, 20–24 h, n = 2, read-out: MIC C. difficile 4118; for in vitro activity against CD4118 (in words): growth inhibition, MIC assay
[3] = system: L. reuteri Strain CF48-3A; experiment: MIC by broth microdilution; type: cell-based, Lactobacillus reuteri; conditions: Limosilactobacillus reuteri; L. reuteri CF48-3A; CAMHB with 5% laked horse blood, ~48 h; duplicate; read-out: MIC
[4] = system: B. breve Strain EX336960VC19; experiment: MIC by broth microdilution; type: cell-based; conditions: Bifidobacterium breve; B. breve EX336960VC19; LSM broth, anaerobic; duplicate; read-out: MIC
[5] = system: S. aureus RN4220; experiment: MIC by broth microdilution; type: cell-based; conditions: Staphylococcus aureus, CAMHB, aerobic, duplicate
[6] = system: C. sporogenes ATCC 15579; experiment: MIC by broth microdilution; type: cell-based; conditions: Clostridium sporogenes, ATCC15579, BHIS, anaerobic, duplicate
[7] = system: B. subtilis ATCC 6051; experiment: MIC by broth microdilution; type: cell-based; conditions: Bacillus subtilis, ATCC6051; B. subtilis ATCC 6051; CAMHB, aerobic; duplicate; read-out: MIC
[8] = system: B. fragilis Strain CL05T00C42; experiment: MIC by broth microdilution; type: cell-based; conditions: Bacteroides fragilis; B. fragilis CL05T00C42; supplemented Brucella broth, anaerobic; duplicate; read-out: MIC
[9] = system: P. aeruginosa PAO1; experiment: MIC by broth microdilution; type: cell-based; conditions: Pseudomonas aeruginosa; P. aeruginosa PAO1; CAMHB, aerobic; duplicate; read-out: MIC
[10] = system: P. distasonis ATCC 8503; experiment: MIC by broth microdilution; type: cell-based; conditions: Parabacteroides distasonis, ATCC8503; P. distasonis ATCC 8503; supplemented Brucella broth, anaerobic; duplicate; read-out: MIC
[11] = system: S. epidermidis 1457; experiment: MIC by broth microdilution; type: cell-based; conditions: Staphylococcus epidermidis; S. epidermidis 1457; CAMHB, aerobic; duplicate; read-out: MIC
[12] = system: B. thetaiotaomicron ATCC 29148; experiment: microbe, parasite or virus in culture; type: cell-based; conditions: Bacteroides thetaiotaomicron, ATCC29148; B. thetaiotaomicron ATCC 29148; supplemented Brucella broth, anaerobic; duplicate; read-out: MIC
[13] = system: C. clostridioforme ATCC 25537; experiment: MIC by broth microdilution; type: cell-based, Clostridium clostridioforme; conditions: Clostridium, ATCC25537; C. clostridioforme ATCC 25537; BHIS, anaerobic; duplicate; read-out: MIC
[14] = system: B. longum subsp. longum Strain 44B; experiment: MIC by broth microdilution; type: cell-based; conditions: Bifidobacterium longum; B. longum subsp. longum 44B; LSM broth, anaerobic; duplicate; read-out: MIC
[15] = system: A. baumannii M2; experiment: MIC by broth microdilution; type: cell-based; conditions: Acinetobacter baumannii; A. baumannii M2; CAMHB, aerobic; duplicate; read-out: MIC
[16] = system: L. plantarum ATCC 8014; experiment: MIC by broth microdilution; type: cell-based; conditions: Lactiplantibacillus plantarum, ATCC8014; L. plantarum ATCC 8014; CAMHB with 5% laked horse blood, ~48 h; duplicate; read-out: MIC
[17] = system: P. nigrescens ATCC 33563; experiment: MIC by broth microdilution; type: cell-based; conditions: Prevotella nigrescens, ATCC33563; P. nigrescens ATCC 33563; supplemented Brucella broth, anaerobic; duplicate; read-out: MIC
[18] = system: L. johnsonii Strain 135-1-CHN; experiment: MIC by broth microdilution; type: cell-based; conditions: Lactobacillus johnsonii, STRAIN1351CHN; L. johnsonii 135-1-CHN; CAMHB with 5% laked horse blood, ~48 h; duplicate; read-out: MIC

Row | SMILES | MIC [1] [µg/mL] | in vitro activity against CD630 (in words) [1] | MIC [2] [µg/mL] | in vitro activity against CD4118 (in words) [2] | further results
1 | O=C(Nc1ccc(Oc2ccccc2)cc1)c1cc(I)cc(I)c1O [Compound 5a] | 0.5 (≈ 0.897 µM) | exhibited in vitro activity | 1 (≈ 1.79 µM) | exhibited in vitro activity | –
2 | COc1c(I)cc(I)cc1C(=O)Nc1ccc(Oc2ccccc2)cc1 [Compound 5b] | > 32 | inactive | > 32 | inactive | –
3 | O=C(Nc1ccc(Oc2ccccc2)cc1)c1cc(I)cc(I)c1 [Compound 5c] | > 32 | inactive | > 32 | inactive | –
4 | CN(C(=O)c1cc(I)cc(I)c1O)c1ccc(Oc2ccccc2)cc1 [Compound 5d] | > 32 | inactive | > 32 | inactive | –
5 | O=C(Nc1ccc(Oc2ccc(F)cc2)cc1)c1cc(I)cc(I)c1O [Compound 5e] | 0.13 (≈ 0.226 µM) | exhibited in vitro activity | 0.13 (≈ 0.226 µM) | exhibited in vitro activity | –
6 | Cc1ccc(Oc2ccc(NC(=O)c3cc(I)cc(I)c3O)cc2)cc1 [Compound 5f] | 0.13 (≈ 0.228 µM) | exhibited in vitro activity | 0.25 (≈ 0.438 µM) | exhibited in vitro activity | –
7 | O=C(Nc1ccc(Oc2ccc(Cl)cc2)cc1)c1cc(I)cc(I)c1O [Compound 5g] | 0.13 (≈ 0.22 µM) | exhibited in vitro activity | 0.25 (≈ 0.423 µM) | exhibited in vitro activity | –
8 | COc1c(I)cc(I)cc1C(=O)Nc1ccc(Oc2ccc(Cl)cc2)cc1 [Compound 5h] | > 32 | inactive | > 32 | inactive | –
9 | O=C(Nc1ccc2ccccc2c1)c1cc(I)cc(I)c1O [Compound 6a] | 0.5 (≈ 0.971 µM) | exhibited in vitro activity | 0.5 (≈ 0.971 µM) | exhibited in vitro activity | MIC [3]: 32 µg/mL (≈ 62.1 µM); MIC [4]: 32 µg/mL (≈ 62.1 µM); MIC [5]: 0.25 µg/mL (≈ 0.485 µM); MIC [6]: 8 µg/mL (≈ 15.5 µM); MIC [7]: 0.06 µg/mL (≈ 0.116 µM); MIC [8]: 32 µg/mL (≈ 62.1 µM); MIC [9]: > 32 µg/mL; MIC [10]: 16 µg/mL (≈ 31.1 µM); MIC [11]: 0.06 µg/mL (≈ 0.116 µM); MIC [12]: > 32 µg/mL; MIC [13]: 4 µg/mL (≈ 7.77 µM); MIC [14]: 32 µg/mL (≈ 62.1 µM); MIC [15]: > 32 µg/mL; MIC [16]: > 32 µg/mL; MIC [17]: 8 µg/mL (≈ 15.5 µM); MIC [18]: 32 µg/mL (≈ 62.1 µM)
10 | COc1c(I)cc(I)cc1C(=O)Nc1ccc2ccccc2c1 [Compound 6b] | > 32 | inactive | > 32 | inactive | –
11 | O=C(Nc1ccc2ccccc2c1)c1cc(I)cc(I)c1 [Compound 6c] | > 32 | inactive | > 32 | inactive | –
12 | O=C(Nc1ccc(-c2ccccc2)cc1)c1cc(I)cc(I)c1O [Compound 7a] | 0.5 (≈ 0.924 µM) | – | 1 (≈ 1.85 µM) | – | –
13 | O=C(Nc1ccc(Cl)cc1)c1cc(I)cc(I)c1O [Compound 7b] | 0.25 (≈ 0.501 µM) | – | 0.5 (≈ 1 µM) | – | MIC [3]: 32 µg/mL (≈ 64.1 µM); MIC [4]: 8 µg/mL (≈ 16 µM); MIC [5]: 0.06 µg/mL (≈ 0.12 µM); MIC [6]: 16 µg/mL (≈ 32 µM); MIC [7]: 0.06 µg/mL (≈ 0.12 µM); MIC [8]: 32 µg/mL (≈ 64.1 µM); MIC [9]: > 32 µg/mL; MIC [10]: 8 µg/mL (≈ 16 µM); MIC [11]: ≤ 0.03 µg/mL; MIC [12]: > 32 µg/mL; MIC [13]: 16 µg/mL (≈ 32 µM); MIC [14]: 8 µg/mL (≈ 16 µM); MIC [15]: 32 µg/mL (≈ 64.1 µM); MIC [16]: 32 µg/mL (≈ 64.1 µM); MIC [17]: 4 µg/mL (≈ 8.01 µM); MIC [18]: 32 µg/mL (≈ 64.1 µM)
14 | O=C(Nc1ccccc1Cl)c1cc(I)cc(I)c1O [Compound 7c] | 8 (≈ 16 µM) | – | 8 (≈ 16 µM) | – | –
15 | O=C(Nc1ccc(I)cc1)c1cc(I)cc(I)c1O [Compound 7d] | 0.13 (≈ 0.22 µM) | – | 0.25 (≈ 0.423 µM) | – | –
16 | O=C(Nc1ccc2c(c1)Cc1ccccc1-2)c1cc(I)cc(I)c1O [Compound 7e, N-(9H-Fluoren-2-yl)-2-hydroxy-3,5-diiodobenzamide] | 0.25 (≈ 0.452 µM) | – | 0.5 (≈ 0.904 µM) | – | –
17 | O=C(NCCc1ccccc1Cl)c1cc(I)cc(I)c1O [Compound 7f] | 2 (≈ 3.79 µM) | – | 2 (≈ 3.79 µM) | – | –
18 | O=C(NCCc1cccc(Cl)c1)c1cc(I)cc(I)c1O [Compound 7g] | 1 (≈ 1.9 µM) | – | 1 (≈ 1.9 µM) | – | –
19 | O=C(NCCc1ccc(Cl)cc1)c1cc(I)cc(I)c1O [Compound 7h] | 0.25 (≈ 0.474 µM) | – | 0.5 (≈ 0.948 µM) | – | –
20 | O=C(NCCc1ccc(Cl)cc1Cl)c1cc(I)cc(I)c1O [Compound 7i] | 0.25 (≈ 0.445 µM) | – | 0.5 (≈ 0.89 µM) | – | –
